{"source": "patent US9758459B2", "about": "“Allosteric modulators of factor XIa as anticoagulant agents” (VIRGINIA COMMONWEALTH UNIVERSITY, priority 2012, dated 2017)", "key": {"human whole blood": {"test_system": "human whole blood", "assay": "Thromboelastography of clot formation in whole blood", "design": "G: unit not given here", "from_the_text": "To assess the anticoagulation properties of SPGG in human whole blood, thromboelastography was employed. This technique is an ex vivo protocol often utilized to evaluate the anticoagulant activity of low molecular weight heparins (LMWHs) in whole blood.^13-16Thromboelastography monitors the thrombodynamic properties of blood as it is induced to clot under a low shear environment resembling sluggish venous flow. These thrombodynamic properties are expected to dramatically change in presence of anticoagulant in blood. The blood clot formation is recorded as a force transduced on a pin at the center of a blood-containing cup. The kinetics of clot formation and growth as well as the strength and stability of the formed clot are measured through parameters such as maximum amplitude (MA) of clot formation; shear elastic modulus strength (G) of clot; the reaction time (R) for the start of clotting; and the angle α, which is a measure of fibrin build-up and cross-linking (FIG. 8)."}, "human factor XIa": {"biological_target": "T1, human factor XIa (Homo sapiens, UniProt P03951)", "T1 construct": "purchased Haematologic Technologies (Essex Junction, Vt.); host or cells: human plasma", "T1 sequence (P03951 19-387 limits assumed)": "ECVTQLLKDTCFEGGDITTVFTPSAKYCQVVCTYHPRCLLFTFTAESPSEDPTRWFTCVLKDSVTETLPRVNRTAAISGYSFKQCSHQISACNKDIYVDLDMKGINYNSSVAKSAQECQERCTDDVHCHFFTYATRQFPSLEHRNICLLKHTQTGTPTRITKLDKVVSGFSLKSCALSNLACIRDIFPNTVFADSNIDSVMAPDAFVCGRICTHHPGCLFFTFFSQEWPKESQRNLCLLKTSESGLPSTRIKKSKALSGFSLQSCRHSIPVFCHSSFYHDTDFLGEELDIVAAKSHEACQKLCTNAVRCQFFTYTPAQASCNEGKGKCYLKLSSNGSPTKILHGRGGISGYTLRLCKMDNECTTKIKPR", "T1 sequence (P03951 388-625 limits assumed)": "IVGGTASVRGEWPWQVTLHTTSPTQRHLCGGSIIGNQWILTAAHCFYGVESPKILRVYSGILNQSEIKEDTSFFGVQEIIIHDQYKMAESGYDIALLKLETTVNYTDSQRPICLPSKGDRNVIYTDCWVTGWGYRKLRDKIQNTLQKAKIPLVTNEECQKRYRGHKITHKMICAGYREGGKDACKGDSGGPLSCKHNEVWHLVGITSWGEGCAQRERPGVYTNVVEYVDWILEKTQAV", "assay": "Direct inhibition of factor XIa, chromogenic substrate S-2366 hydrolysis assay", "format": "biochemical", "conditions": "for IC50: read-out: IC50 (converted)", "procedure": "Solvent A consisted of 25 mM n-hexylamine in water containing 0.1% (v/v) formic acid, while solvent B consisted of 25 mM n-hexylamine in acetonitrile-water mixture (3:1 v/v) containing 0.1% (v/v) formic acid. […] The sample was first monitored for absorbance in the range of 190-400 nm and then directly introduced into the mass spectrometer. ESI-MS detection was performed in positive ion mode for which the capillary voltage was 4 kV, cone voltage was 20 V, desolvation temperature was 350° C. and nitrogen gas flow was maintained at 650 L/hr. Mass scans were collected in the range of 1000-2048 amu within 0.25 s and several of these added to enhanced signal-to-noise ratio. Direct Inhibition of Factor XIa. […] After 10 min incubation, 5 μL factor XIa substrate (345 μM) was rapidly added and the residual FXIa activity was measured from the initial rate of increase in absorbance at 405 nm. […] Relative residual FXIa activity at each concentration of the inhibitor was calculated from the ratio of FXIa activity in the presence and absence of the inhibitor. Logistic equation 1 was used to fit the dose-dependence of residual protease activity to obtain the potency (IC50) and efficacy (ΔY) of inhibition.\nDirect Inhibition of Factor XIa by Sulfated QAOs was performed as described in Example 1.\nThe ability of the sulfated inositol analogs to inhibit factor XIa was studied using the in vitro assay described in Example 1. In this assay, the factor XIa enzyme is anticipated to hydrolyze a particular peptide linkage in the corresponding peptide substrate releasing p-nitroaniline which absorbs at wavelength of 405 nm giving a line slope corresponds to the enzyme activity. The line slope of no inhibitor status is considered as a reference slope and it depends on the relative concentrations of factor XIa enzyme and its substrate. Factor XIa enzyme concentration was decided to get appropriate reference slope of approximately 25-35, whereas the substrate concentration was set to be larger than its affinity to factor XIa enzyme under equilibrium condition, Km. In presence of potential factor XIa inhibitor, the enzyme capacity to hydrolyze the designated peptide linkage in the substrate gets diminished or completely abolished depending on the inhibitor concentration and efficacy. […] Such decreased slope reflects a drop in the catalytic enzyme activity of factor XIa."}, "factor XIIa": {"biological_target": "T2, factor XIIa (Homo sapiens, UniProt P00748)", "T2 construct": "purchased Enzyme Research Laboratories (South Bend, Ind.)", "T2 sequence (P00748 373-615 limits assumed)": "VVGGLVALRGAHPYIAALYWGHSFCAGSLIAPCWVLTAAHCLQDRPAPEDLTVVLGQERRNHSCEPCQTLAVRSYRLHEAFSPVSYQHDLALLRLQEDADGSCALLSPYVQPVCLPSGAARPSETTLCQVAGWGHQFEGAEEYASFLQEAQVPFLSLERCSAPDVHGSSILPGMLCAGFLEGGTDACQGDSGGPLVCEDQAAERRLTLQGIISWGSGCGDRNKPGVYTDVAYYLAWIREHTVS", "assay": "Factor XIIa chromogenic substrate hydrolysis assay", "format": "biochemical"}, "[1]": {"biological_target": "T3, FXIa catalytic domain (FXIa-CD) (Homo sapiens, UniProt P03951, C500S)", "T3 construct": "eliminating the bond allows the catalytic domain of FXIa (FXIa-CD) to separate from the heavy chain; made in house; host or cells: HEK-293", "T3 sequence (P03951 388-625 C500S)": "as the sequence (P03951 388-625 limits assumed) above, with C113S counted along it", "assay": "Michaelis-Menten kinetics of S-2366 hydrolysis by FXIa catalytic domain", "format": "biochemical", "procedure": "Plasma FIX (500 nM) was incubated with human FXIa (3 nM) in 50 mM Hepes buffer, pH 7.4, containing 125 mM NaCl, 5 mM CaCl2, and 0.1 mg/mL bovine serum albumin at 24° C. […] The primary antibody was goat anti-human FIX polyclonal IgG (Enzyme Research Laboratories, South Bend, Tenn.), and the secondary antibody was horseradish peroxidase-conjugated anti-goat IgG. Detection was by chemiluminescence. […] The inhibition profile was determined over a range of inhibitor concentrations to determine the IC50 of the enzyme-inhibitor complex. The KM of the substrate for its enzyme was used to identify the concentration of the substrate to be used for inhibition studies. […] Active site concentrations for preparations of FXIa were determined by titrations with human antithrombin in an S-2366 cleavage assay. The reaction was monitored using a SpectraMax 340 microtiter plate reader (Molecular Devices Corp., Sunnyvale, Calif.) with a reaction volume of 100 μL and path length of 3 mm. Each assay was performed in triplicate. The concentration of S-2366 was measured using an absorption coefficient of 8,266 M-1cm-1 at λ342 nm, while the free p-nitroaniline concentration was calculated using an absorption coefficient of 9,933 M cm^−1 at λ405 nm. The data was fitted using the standard Michaelis-Menten equation to determine the KM and VMAX. Results"}}, "note": "Values joined by “and” are separate entries in the source; they are usually repeats but may differ in a detail not shown here. Equal values may be shown once. Read-outs that look alike come from different tables or passages of the source.", "data": [{"compound": "O=C(OC[C@H]1O[C@@H](OC(=O)c2cc(OS(=O)(=O)O)c(O)c(OS(=O)(=O)O)c2)[C@H](OC(=O)c2cc(OS(=O)(=O)O)c(O)c(OS(=O)(=O)O)c2)[C@@H](OC(=O)c2cc(OS(=O)(=O)O)c(O)c(OS(=O)(=O)O)c2)[C@@H]1OC(=O)c1cc(OS(=O)(=O)O)c(O)c(OS(=O)(=O)O)c1)c1cc(OS(=O)(=O)O)c(O)c(OS(=O)(=O)O)c1", "note": "[SPGG, Sulfated Pentagalloylglucoside]", "values": [{"measurement": "reduction of G", "setting": "human whole blood; SPGG 0-280 μg/mL", "result": "~8", "unit": "fold"}, {"measurement": "reduction of MA", "setting": "human whole blood; SPGG 0-280 μg/mL", "result": "~4", "unit": "fold"}, {"measurement": "G", "setting": "human whole blood; SPGG 20 μg/mL", "result": "8.2 × 10^3"}, {"measurement": "MA", "setting": "human whole blood; SPGG 20 μg/mL", "result": 62, "unit": "mm"}, {"measurement": "R", "setting": "human whole blood; SPGG 20 μg/mL", "result": 6.6, "unit": "min"}, {"measurement": "α", "setting": "human whole blood; SPGG 20 μg/mL", "result": 51.4, "unit": "degs"}, {"measurement": "G", "setting": "human whole blood; SPGG 135 μg/mL", "result": "5.0 × 10^3"}, {"measurement": "MA", "setting": "human whole blood; SPGG 135 μg/mL", "result": 49.8, "unit": "mm"}, {"measurement": "R", "setting": "human whole blood; SPGG 135 μg/mL", "result": 22.8, "unit": "min"}, {"measurement": "α", "setting": "human whole blood; SPGG 135 μg/mL", "result": 30.6, "unit": "degs"}, {"measurement": "G", "setting": "human whole blood; SPGG 190 μg/mL", "result": "3.8 × 10^3"}, {"measurement": "MA", "setting": "human whole blood; SPGG 190 μg/mL", "result": 43.5, "unit": "mm"}, {"measurement": "R", "setting": "human whole blood; SPGG 190 μg/mL", "result": 37.8, "unit": "min"}, {"measurement": "α", "setting": "human whole blood; SPGG 190 μg/mL", "result": 9.4, "unit": "degs"}, {"measurement": "G", "setting": "human whole blood; SPGG 280 μg/mL", "result": "0.9 × 10^3"}, {"measurement": "MA", "setting": "human whole blood; SPGG 280 μg/mL", "result": 15.1, "unit": "mm"}, {"measurement": "R", "setting": "human whole blood; SPGG 280 μg/mL", "result": 87.1, "unit": "min"}, {"measurement": "α", "setting": "human whole blood; SPGG increased from 0 to 280 μg/mL", "result": "less than 9.4 °"}, {"measurement": "efficacy of FXIa inhibition", "setting": "human factor XIa; chromogenic substrate", "result": "~100% and 97%"}, {"measurement": "ΔY", "setting": "human factor XIa; efficacy of inhibition", "result": "97.1 ± 3.2"}, {"measurement": "HS (Hill slope)", "setting": "human factor XIa; pH 7.4, 37° C.", "result": "1.3 and 1.3 ± 0.1"}, {"measurement": "IC50", "setting": "human factor XIa; pH 7.4, 37° C., S-2366", "result": 689, "unit": "nM"}, {"measurement": "IC50", "setting": "human factor XIa; translated with average molecular weight 2178 g/mol", "result": "~550 nM and 551 nM"}, {"measurement": "HS", "setting": "factor XIIa", "result": "3.0 ± 1.8"}, {"measurement": "IC50", "setting": "factor XIIa", "result": 147000, "unit": "nM"}, {"measurement": "ΔY", "setting": "factor XIIa", "result": "55.7 ± 5.9"}, {"measurement": "selectivity over factor XIIa", "setting": "factor XIIa; FXIa vs factor XIIa", "result": 200, "unit": "fold"}, {"measurement": "decrease in VMAX", "setting": "[1]; SPGG 0 to 5.0 μg/mL", "result": "~5", "unit": "fold"}, {"measurement": "VMAX", "setting": "[1]; [SPGG] 0.005 μg/mL", "result": "87.0 ± 2.2", "unit": "mAU/min"}, {"measurement": "VMAX", "setting": "[1]; [SPGG] 0.5 μg/mL", "result": "53.9 ± 1.4", "unit": "mAU/min"}, {"measurement": "VMAX", "setting": "[1]; [SPGG] 5.0 μg/mL", "result": "22.6 mAU/min and 22.6 ± 1.4 mAU/min"}]}]}
